Results taken from patent publication US20130053243A1, “PLANTS HAVING INCREASED TOLERANCE TO HERBICIDES” (BASF SE, priority 2010, published 2013).
Read-outs that look alike come from different tables or passages of the source.

Tests used:
[1] = system: Chlamydomonas strain CC1961 wild-type; experiment: Growth inhibition of Chlamydomonas strains (tolerance); assay type: cell-based, Chlamydomonas reinhardtii; conditions: read-out: IC50 of growth inhibition
Procedure: (§1) Algae cells of Chlamydomonas reinhardtii strains CC-503 and CC-1691 (Duke University, Durham, USA) are propagated in TAP medium (Gorman and Levine (1965) PNAS 54: 1665-1669) by constant shaking at 100 rpm, 22° C. and 30 μmol Phot*m^−2*[…] light illumination. Scenedesmus obliquus (University of Gottingen, Germany) are propagated in algae medium as described (Boger and Sandmann, (1993) In: Target assays for modern herbicides and related phytotoxic compounds, Lewis Publishers) under same culturing conditions as mentioned for Chlamydomonas. Compound screening is performed at 450 μmol Phot*m^−2*[…] illumination.
(§2) Sensitive strains of Chlamydomonas reinhardtii or Scenedesmus obliquus (Tables 14, 15) are mutated with 0.14 […] (EMS) for 1 h as described by Loppes (1969, Mol Gen Genet. 104: 172-177) Tolerant strains are identified by screening of mutagenized cells on solid nutrient solution plates containing “coumarone-derivative herbicides” or other HPPD inhibiting herbicides at wildype-lethal concentrations. Examples of the data obtained are depicted in Table 16 and FIG. 2.

[2] = system: Chlamydomonas strain CMr04; experiment: as above; assay type: cell-based, Chlamydomonas reinhardtii
Procedure: as §1, §2

[3] = system: Chlamydomonas strain CMr05; experiment: as above; assay type: cell-based, Chlamydomonas reinhardtii
Procedure: as §1, §2

[4] = system: Chlamydomonas strain CMr06; experiment: as above; assay type: cell-based, Chlamydomonas reinhardtii
Procedure: as §1, §2

[5] = system: Chlamydomonas strain CMr10; experiment: as above; assay type: cell-based, Chlamydomonas reinhardtii; conditions: read-out: IC50 of growth inhibition
Procedure: as §1, §2

[6] = system: Chlamydomonas strain CMr13; experiment: as above; assay type: cell-based, Chlamydomonas reinhardtii; conditions: read-out: IC50 of growth inhibition
Procedure: as §1, §2

[7] = system: Chlamydomonas strain CMr15; experiment: as above; assay type: cell-based, Chlamydomonas reinhardtii
Procedure: as §1, §2

Arabidopsis HPPD = target: T1, Arabidopsis HPPD (Arabidopsis thaliana, UniProt P93836); experiment: HPPD activity assay (homogentisic acid by HPLC), wildtype enzyme; assay type: biochemical; conditions: Table 11, calculated from IC50 with Cheng-Prusoff equation, read-out: dissociation constant Ki
T1 construct: His6 (N); made in house; host or cells: E. coli BL21 (DE3)
T1 sequence (P93836 1-445): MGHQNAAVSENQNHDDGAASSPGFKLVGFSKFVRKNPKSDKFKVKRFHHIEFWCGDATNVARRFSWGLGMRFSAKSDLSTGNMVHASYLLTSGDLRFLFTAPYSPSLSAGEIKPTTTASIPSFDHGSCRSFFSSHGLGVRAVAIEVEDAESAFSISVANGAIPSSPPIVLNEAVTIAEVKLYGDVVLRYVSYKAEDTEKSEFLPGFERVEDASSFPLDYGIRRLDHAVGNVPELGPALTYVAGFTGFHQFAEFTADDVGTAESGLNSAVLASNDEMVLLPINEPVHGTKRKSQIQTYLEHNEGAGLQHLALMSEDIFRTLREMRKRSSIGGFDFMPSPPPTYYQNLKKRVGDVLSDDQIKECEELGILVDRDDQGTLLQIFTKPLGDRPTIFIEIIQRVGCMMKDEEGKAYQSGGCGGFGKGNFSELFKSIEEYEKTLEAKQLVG
Procedure: (§3) HPPD produces homogentisic acid and CO2 from 4-hydroxyphenylpyruvate (4-HPP) and O2. The activity assay for HPPD is based on the analysis of homogentisic acid by reversed phase HPLC.
(§4) The assay mixture can contain 150 mM potassium phosphate buffer pH 7.0, 50 mM L-ascorbic acid, 1 μM FeSO4 and 7 μg of purified enzyme in a total volume of 1 ml.
(§5) Inhibitors are dissolved in DMSO (dimethylsulfoxide) to a concentration of 20 mM or 0.5 mM, respectively. From this stock solution serial five-fold dilutions are prepared in DMSO, which are used in the assay. The respective inhibitor solution accounts for 1% of the assay volume. Thus, final inhibitor concentrations range from 200 μM to 2.5 nM or from 5 μM to 63 pM, respectively.
(§6) After a preincubation of 30 min the reaction is started by adding 4-HPP to a final concentration of 0.1 mM. The reaction is allowed to proceed for 120 min at room temperature. The reaction is stopped by addition of 100 μl of 4.5 M phosphoric acid.
The sample is extracted on an Oasis® HLB cartridge 3 cc/60 mg (Waters) that was preequilibrated with 63 mM phosphoric acid. L-ascorbic acid is washed out with 3 ml of 63 mM phosphoric acid. […]
(§7) 10 μl of the eluate is analyzed by reversed phase HPLC on a Symmetry® C18 column (particle size 3.5 μm, dimensions 4.6×100 mm; Waters) using 5 mM H3PO4/15% ethanol (w/w) as an eluent.
(§8) Homogentisic acid is detected electrochemically and quantified by measuring peak areas (Empower software; Waters).
Activities are normalized by setting the uninhibited enzyme activity to 100%. IC50 values are calculated using non-linear regression. […]
(§9) 5 μl of the cleared sample is analyzed on an Atlantis T3 column (particle size 3 μm, dimensions 3×50 mm; Waters) by isocratic elution using 90% 10 mM NaH2PO4 pH 2.2, 10% methanol (v/v).
(§10) HGA is detected electrochemically at 750 mV (mode: DC; polarity: positive) and quantified by integrating peak areas (Empower software; Waters).
Inhibitors are dissolved in DMSO (dimethylsulfoxide) to a concentration of 0.5 mM. […] IC50 values are calculated using non-linear regression. […]

Chlamydomonas HPPD1 = Chlamydomonas HPPD1 (Chlamydomonas reinhardtii, UniProt A0A2K3DET7); experiment: HPPD activity assay, wildtype enzyme; assay type: biochemical; conditions: calculated from IC50 with Cheng-Prusoff equation, read-out: dissociation constant Ki
Sequence of Chlamydomonas HPPD1 (A0A2K3DET7 entry or part of it): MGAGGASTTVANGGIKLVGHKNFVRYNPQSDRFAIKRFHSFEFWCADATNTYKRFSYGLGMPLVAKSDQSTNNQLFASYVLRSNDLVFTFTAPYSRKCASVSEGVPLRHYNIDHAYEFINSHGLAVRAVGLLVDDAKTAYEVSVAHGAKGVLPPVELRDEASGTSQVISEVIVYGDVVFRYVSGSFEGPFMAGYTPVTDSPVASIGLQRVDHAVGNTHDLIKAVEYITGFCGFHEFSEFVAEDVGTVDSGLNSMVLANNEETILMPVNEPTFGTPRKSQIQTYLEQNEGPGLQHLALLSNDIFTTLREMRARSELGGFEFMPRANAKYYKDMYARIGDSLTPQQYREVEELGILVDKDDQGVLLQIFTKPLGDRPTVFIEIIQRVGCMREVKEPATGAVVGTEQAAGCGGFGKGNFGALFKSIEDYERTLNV
Procedure: as §3, §4
Inhibitors are dissolved in DMSO (dimethylsulfoxide) to a concentration of 20 mM or 0.5 mM, respectively. From this stock solution serial five-fold dilutions are prepared in DMSO, which are used in the assay. The respective inhibitor solution accounts for 1% of the assay volume.
as §6
(§11) Activities are normalized by setting the uninhibited enzyme activity to 100%. IC50 values are calculated using non-linear regression.
The assay mixture can contain 150 mM potassium phosphate buffer pH 7.0, 50 mM L-ascorbic acid, 100 μM Catalase (Sigma-Aldrich), 1 μM FeSO4 and 0.2 units of purified HPPD enzyme in a total volume of 505 μl. […]
as §10
Inhibitors are dissolved in DMSO (dimethylsulfoxide) to a concentration of 0.5 mM. […] IC50 values are calculated using non-linear regression.
Using methods which are described in the above examples or well known in the art, purified, recombinant wildtype HPPD enzymes are characterized with respect to their kinetic properties and sensitivity towards HPPD inhibiting herbicides. Apparent michaelis constants (Km) and maximal reaction velocities (Vmax) are calculated by non-linear regression with the software GraphPad Prism 5 (GraphPad Software, La Jolla, USA) using a substrate inhibition model. […] Weighted means (by standard error) of Km and IC50 values are calculated from at least three independent experiments.

[8] = target: T2, Arabidopsis HPPD variant Q293H (Arabidopsis thaliana, UniProt P93836, Q293H); experiment: HPPD activity assay, mutant enzyme; assay type: biochemical
T2 construct: His6 (N); made in house; host or cells: E. coli BL21 (DE3)
T2 sequence (P93836 whole entry Q293H): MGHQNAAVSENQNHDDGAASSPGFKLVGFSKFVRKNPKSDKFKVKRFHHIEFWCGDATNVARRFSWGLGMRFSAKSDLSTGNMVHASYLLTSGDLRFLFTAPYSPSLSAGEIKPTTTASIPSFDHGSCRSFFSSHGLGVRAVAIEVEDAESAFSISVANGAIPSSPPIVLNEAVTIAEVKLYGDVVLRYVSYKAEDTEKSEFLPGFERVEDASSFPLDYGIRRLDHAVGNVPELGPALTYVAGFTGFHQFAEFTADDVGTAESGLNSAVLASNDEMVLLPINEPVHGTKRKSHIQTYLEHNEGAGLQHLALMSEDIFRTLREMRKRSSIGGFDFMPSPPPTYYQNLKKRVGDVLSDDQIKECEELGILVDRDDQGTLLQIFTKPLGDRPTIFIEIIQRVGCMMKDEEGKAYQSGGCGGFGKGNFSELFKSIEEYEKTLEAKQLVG
Procedure: as §3, §4, §5, §6
(§12) The sample is extracted on an Oasis® HLB cartridge 3 cc/60 mg (Waters) that was preequilibrated with 63 mM phosphoric acid. L-ascorbic acid is washed out with 3 ml of 63 mM phosphoric acid. Homogentisate is eluted with 1 ml of a 1:1 mixture of 63 mM phosphoric acid and methanol (w/w).
as §7, §8, §11
(§13) The assay mixture can contain 150 mM potassium phosphate buffer pH 7.0, 50 mM L-ascorbic acid, 100 μM Catalase (Sigma-Aldrich), 1 μM FeSO4 and 0.2 units of purified HPPD enzyme in a total volume of 505 μl. 1 unit is defined as the amount of enzyme that is required to produce 1 nmol of HGA per minute at 20° C.
(§14) After a preincubation of 30 min the reaction is started by adding 4-HPP to a final concentration of 0.05 mM. The reaction is allowed to proceed for 45 min at room temperature. The reaction is stopped by the addition of 50 μl of 4.5 M phosphoric acid. The sample is filtered using a […] pore size PVDF filtration device.
as §9, §10
(§15) Inhibitors are dissolved in DMSO (dimethylsulfoxide) to a concentration of 0.5 mM. From this stock solution serial five-fold dilutions are prepared in DMSO, which are used in the assay. The respective inhibitor solution accounts for 1% of the assay volume. Thus, final inhibitor concentrations range from 5 μM to 320 pM, respectively. Activities are normalized by setting the uninhibited enzyme activity to 100%. IC50 values are calculated using non-linear regression.
(§16) Purified, mutant HPPD enzymes are obtained by the methods described above. Dose response and kinetic measurements are carried out using the described HPPD activity assay. Apparent michaelis constants (Km) and maximal reaction velocities (Vmax) are calculated by non-linear regression with the software GraphPad Prism 5 (GraphPad Software, La Jolla, USA) using a substrate inhibition model. Apparent kcat values are calculated from Vmax assuming 100% purity of the enzyme preparation. Weighted means (by standard error) of Km and IC50 values are calculated from at least three independent experiments. The Cheng-Prusoff equation for competitive inhibition (Cheng, Y. C.; Prusoff, W. H. Biochem Pharmacol 1973, 22, 3099-3108) is used to calculate dissociation constants (Ki). Examples of the data obtained are depicted in Table 13.

[9] = target: T3, Arabidopsis HPPD variant Q293N (Arabidopsis thaliana, UniProt P93836, Q293N); experiment: HPPD activity assay, mutant enzyme; assay type: biochemical
T3 construct: His6 (N); made in house; host or cells: E. coli BL21 (DE3)
T3 sequence (P93836 whole entry Q293N): as the sequence (P93836 whole entry Q293H) above, with H293N counted along it
Procedure: as §3, §4, §5, §6, §12, §7, §8, §11, §13, §14, §9, §10, §15, §16

Scenedesmus obliquus = experiment: S. obliquus growth inhibition; assay type: cell-based
Excerpt: (§17) Bleaching herbicides with a mode of action in plastoquinone or tocopherol biosynthesis can inhibit algae growth (Tables 14 and 15). These effects can be partly reversed by intermediates of homogentisic acid biosynthesis (Table 14). To generate mutations conferring “coumarone-derivative herbicide” resistance in HPPD or HST genes, chemical or UV mutagenesis can be used. Especially unicellular organisms like Chlamydomonas reinhardtii or Scenedesmus obliquus are useful for identifying dominant mutations in herbicide resistance.
as §1

C. reinhardtii (CC-503) = experiment: C. reinhardtii growth inhibition by HPPD inhibiting herbicides; assay type: cell-based, Chlamydomonas reinhardtii
Excerpt: as §17, §1

[10] = read-out: IC50 of growth inhibition

Structure (SMILES): Cc1c(-c2c(O)c3ncccc3oc2=O)ccc(S(C)(=O)=O)c1C1=NOC(C)C1 (stereo not drawn) [“coumarone-derivative herbicides” 1, 4-hydroxy-3-[2-methyl-3-(5-methyl-4,5-dihydroisoxazol-3-yl)-4-methylsulfonyl-phenyl]pyrano[3,2-b]pyridin-2-one]
- IC50 ([1]; strain CC1961 wild-type): 760 µM
- IC50 ([2]; strain CMr04, read-out: IC50 of growth inhibition): > 1000 µM
- IC50 ([3]; strain CMr05, read-out: IC50 of growth inhibition): > 1000 µM
- IC50 ([4]; strain CMr06, read-out: IC50 of growth inhibition): > 1000 µM
- IC50 [5]: > 1000 µM
- IC50 [6]: 950 µM
- IC50 ([7]; strain CMr15, read-out: IC50 of growth inhibition): > 1000 µM

Structure (SMILES): CS(=O)(=O)c1ccc(C(=O)C2C(=O)CCCC2=O)c([N+](=O)[O-])c1 [Mesotrione, reference compound]
- IC50 [1]: 30 µM
- IC50 [2, 10]: > 600 µM
- IC50 [3, 10]: > 600 µM
- IC50 [4, 10]: > 600 µM
- IC50 [5]: 450 µM
- IC50 [6]: > 600 µM
- IC50 [7, 10]: 540 µM

Structure (SMILES): O=S1(=O)C(c2ccc(Cl)cc2Cl)=C(O)c2ncccc2N1CC(F)F [Inhibitor 2, 3-(2,4-dichlorophenyl)-1-(2,2-difluoroethyl)-2,2-dioxo-pyrido[3,2-c]thiazin-4-ol]
- Ki (Arabidopsis HPPD): 0.013 µM
- Ki (Chlamydomonas HPPD1): 0.139 µM
- Ki [8]: 0.019 µM
- Ki [9]: 0.044 µM

Structure (SMILES): C#Cc1ccc(-c2c(O)c3ncccc3oc2=O)c(C(F)(F)F)c1 [drawing 21, 3-[4-ethynyl-2-(trifluoromethyl)phenyl]-4-hydroxy-pyrano[3,2-b]pyridin-2-one]
- Growth inihibition [%] Scenedesmus obliquus (Scenedesmus obliquus; c 1 * 10^−4 M): 100%
- Growth inihibition [%] Scenedesmus obliquus (Scenedesmus obliquus; c 1 * 10^−5 M): 77%

Structure (SMILES): C#Cc1ccc(-c2c(O)c3ncccc3oc2=O)c(C(F)(F)F)c1 [drawing 20]
- Growth inihibition [%] C. reinhardtii (CC-503) (C. reinhardtii (CC-503); c 1 * 10^−4 M): 61%
- Growth inihibition [%] C. reinhardtii (CC-503) + Homogentisic acid (C. reinhardtii (CC-503); c 1 * 10^−4 M): 43%
- Growth inihibition [%] C. reinhardtii (CC-503) (C. reinhardtii (CC-503); c 5 * 10^−4 M): 90%
- Growth inihibition [%] C. reinhardtii (CC-503) + Homogentisic acid (C. reinhardtii (CC-503); c 5 * 10^−4 M): 67%
